pIC50: −log10 of the molar value. Calls of active or inactive are those of the source. The rule behind the calls is not given here.
Tests used:
HCT-116 [1] = experiment: Antiproliferative activity against human HCT-116 cells assessed as inhibition of cell growth; type: functional, cell-based
A549 [2] = experiment: Antiproliferative activity against human A549 cells assessed as inhibition of cell growth; type: functional, cell-based
HeLa [3] = experiment: Antiproliferative activity against human HeLa cells assessed as inhibition of cell growth; type: functional, cell-based
HCT-116 [4] = experiment: Antiproliferative activity against human HCT-116 cells assessed as inhibition of cell growth in presence of beta-glucuronidase; type: functional, cell-based
[5] = Stability of compound in bovine serum solution for 37 degC assessed as degradation measured after 48 hrs by HPLC method; type: ADME, cell-free, Bos taurus; details: cattle
HeLa [6] = experiment: Antiproliferative activity against human HeLa cells assessed as inhibition of cell growth in presence of beta-glucuronidase; type: functional, cell-based
A549 [7] = experiment: Antiproliferative activity against human A549 cells assessed as inhibition of cell growth in presence of beta-glucuronidase; type: functional, cell-based
[8] = Chemical stability of compound in phosphate buffer at pH 7.4 for 37 degC assessed as degradation measured after 48 hrs by HPLC method; type: physicochemical; details: pH 7.4, 48 h
[9] = Toxicity in BALB/c mouse assessed as body weight loss at 2 to 4 mg/kg, iv administered every 3 days; type: organism-based; details: in vivo, 72 h, dose 2-4 mg/kg, time 3 day
[10] = Chemical stability of compound in phosphate buffer at pH 7.4 for 37 degC assessed as drug degradation measured after 20 mins in presence of beta-glucuronidase by HPLC method relative to control; type: physicochemical; details: phosphate buffer with beta-glucuronidase, read-out: Drug degradation
[11] = Chemical stability of compound in phosphate buffer at pH 7.4 for 37 degC assessed as drug degradation measured after 2 hrs in presence of beta-glucuronidase by HPLC method; type: physicochemical; details: pH 7.4, 2 h
HCT-116 [12] = experiment: Antitumor activity against human HCT-116 cells xenografted in iv dosed BALB/C mouse assessed as tumor growth inhibition administered every 5 days; type: functional, organism-based; details: dose 2-4 mg/kg, time 5.0 day
HCT-116 [13] = experiment: Antitumor activity against human HCT-116 cells xenografted in BALB/C mouse assessed as tumor growth inhibition at 0.5 mg/kg, iv administered every 5 days; type: functional, organism-based; details: time 5.0 day
[14] = Toxicity in BALB/c mouse assessed as side effect at 2 to 4 mg/kg, iv administered every 3 days; type: organism-based; details: in vivo, 72 h, dose 2-4 mg/kg, time 3 day

pIC50 (HCT-116 [1]) | pIC50 (A549 [2]) | pIC50 (HeLa [3]) | pIC50 (HCT-116 [4]) | Stability [5] | pIC50 (HeLa [6]) | pIC50 (A549 [7]) | Stability [8] | Structure (SMILES) | Activity [9] | metabolised at 20 min [10] | Stability [11] | Activity (HCT-116 [12]) | Activity (HCT-116 [13]) | Activity [14]
8.21 | 8.26 | 8.31 |  |  |  |  |  | CC[C@H](C)[C@@H]([C@@H](CC(=O)N1CCC[C@H]1[C@H](OC)[C@@H](C)C(=O)N[C@H](C)[C@@H](O)c1ccc(F)cc1)OC)N(C)C(=O)[C@@H](NC(=O)[C@H](C(C)C)N(C)C)C(C)C |  |  |  |  |  | 
5.95 | 5.99 | 6.00 | 8.04 | Stable | 8.08 | 8.01 | Stable | CC[C@H](C)[C@@H]([C@@H](CC(=O)N1CCC[C@H]1[C@H](OC)[C@@H](C)C(=O)N[C@H](C)[C@@H](OC(=O)N(C)CCN(C)C(=O)OCc1ccc(O[C@@H]2O[C@H](C(=O)O)[C@@H](O)[C@H](O)[C@H]2O)c([N+](=O)[O-])c1)c1ccc(F)cc1)OC)N(C)C(=O)[C@@H](NC(=O)[C@H](C(C)C)N(C)C)C(C)C |  |  |  |  |  | 
5.83 | 5.82 | 5.78 | 8.18 | Stable | 8.24 | 8.20 | Stable | CC[C@H](C)[C@@H]([C@@H](CC(=O)N1CCC[C@H]1[C@H](OC)[C@@H](C)C(=O)N[C@H](C)[C@@H](OC(=O)N(C)CCN(C)C(=O)OCc1ccc(O[C@@H]2O[C@H](C(=O)O)[C@@H](O)[C@H](O)[C@H]2O)c([N+](=O)[O-])c1)c1ccccc1)OC)N(C)C(=O)[C@@H](NC(=O)[C@H](C(C)C)N(C)C)C(C)C | Non-Toxic | 48% | Unstable | Dose-Dependent Effect |  | 

Structure (SMILES) | pIC50 (HCT-116 [1]) | pIC50 (A549 [2]) | pIC50 (HeLa [3]) | pIC50 (HCT-116 [4]) | Stability [5] | pIC50 (HeLa [6]) | pIC50 (A549 [7]) | Stability [8] | Activity [9] | metabolised at 20 min [10] | Stability [11] | Activity (HCT-116 [12]) | Activity (HCT-116 [13]) | Activity [14]
CC[C@H](C)[C@@H]([C@@H](CC(=O)N1CCC[C@H]1[C@H](OC)[C@@H](C)C(=O)N[C@H](C)[C@@H](O)c1ccccc1)OC)N(C)C(=O)[C@@H](NC(=O)[C@H](C(C)C)N(C)C)C(C)C | 8.30 | 8.30 | 8.31 |  |  |  |  |  |  | 37% | Unstable |  | Active | Non-Toxic

Reference: ChEMBL document CHEMBL5365544, “Design, synthesis of auristatins-glucuronide conjugates targeting the β-glucuronidase in tumor microenvironment” (Bioorg Med Chem Lett, 2023)
